Values of other authors, collected in patent US6365170B1, “Use of a disinfectant for living fish” (USF Filtration & Separations Spa-Div. Perdomini, priority 1998, dated 2002).

Tested on: salmon louse (Lepeophtheirus Salmonis)
Settings: hydrogen peroxide around 1.5 g/l for longer than 20 minutes

For `OO` [hydrogen peroxide], the success percentage is given as ~100%.
